One series deals with corn plant. Briefly: Spot-on crop injury test on corn leaf. It is filed as in vivo. The conditions noted are these: corn at 2.5-leaf stage, 2 micro liter droplet spotted on 2nd leaf; glufosinate-ammonium 40,000 ng/plant, PPO inhibitor none or 20 ng/plant (weight ratio 1/2,000); visually estimated 3 days after treatment, % of total area of treated leaf. The text has this:
3 days after the spot-on treatments, the injured area of the treated leaf was visually estimated as a percentage on the total area of the treated leaf.

A further series relates to soybean plant. Put plainly: Spot-on crop injury test on soybean leaf. It is filed as in vivo. The conditions noted are these: soybean at 2 trifoliate leaf stage, 2 micro liter droplet spotted on 2nd trifoliate leaf; glufosinate-ammonium 400,000 ng/plant, PPO inhibitor none or 0.2 ng/plant (weight ratio 1/2,000,000); visually estimated 6 days after treatment, % of total area of treated leaf. From the text:
One droplet having 2 micro liter of a commercial formulation of glufosinate-ammonium (manufactured by Bayer Cropscience KK under the trade name of Basta) having 200,000 ppm (200 g/L) of glufosinate-ammonium was spotted on the 2nd trifoliate leaf of a soybean plant at the stage of 2 trifoliate leaf.
6 days after the spot-on treatments, the injured area of the treated leaf was visually estimated as a percentage on the total area of the treated leaf.

SMILES strings stand for the structures.

As to `CP(=O)(O)CCC(N)C(=O)O` (centres unmarked) [Glufosinate-ammonium, glufosinate-ammonium], the Injured leaf area in the series with corn plant was 60%; in the series with soybean plant, 70%.

Source of the values: patent US10555528B1, “Herbicidal composition and method for controlling weeds” (SUMITOMO CHEMICAL COMPANY, LIMITED, priority 2019, dated 2020).
